Reference: patent US11413278B2, “Compounds and methods for promoting stress resistance” (priority 2015, dated 2022)
“Also recorded” adds a separate entry of the source. Where two headings read alike, the source gives them in different places.

What was measured:
FOXO3 = assay: qPCR analysis of FOXO3-regulated genes; type: cell-based, human; details: for fold induction at 10 µM: Homo sapiens; for K = Sestrin induction: score
Summary of the method: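 FOXO3 target-gene expression quantified by qPCR normalised to B2M, PPIA and GAPDH, in WI-38 cells after 24 h exposure to 10 μM compound. Some runs used cells first transfected 36 h with 10 nM FOXO3 or NRF2 siRNA and replated ~24 h before dosing.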

WI-38 cells [1] = details: for No H2O2 stress treatment, at 10 uM (fold change): normalized ATP measurement; for Assay 1: H2O2-resistant: YES/NO, if NO, possibly due to repeated freezing/thawing of stocks
C. elegans = type: in vivo, Caenorhabditis elegans; details: in vivo
Summary of the method: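 Survival under oxidative stress: 500 μM H2O2 (final) was added to day-4 adults kept in liquid with compounds, FUdR present, 4 wells per molecule and 0.2% DMSO controls, with daily scoring of viability.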

[2] = Summary score for characterization of 38 core set hits; details: for D = Triple resistant: 2-point score, multiplex resistance (cadmium, MMS, H2O2); for S = Sum of Negative scores: human; for C = H2O2- & Cd-resistant: score, resistance to both H2O2 and cadmium
Summary of the method: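 Hits from a small-molecule screen for H2O2 resistance were scored across characterization assays. Multiplex resistance, FOXO3 and/or NRF2 activation and mTOR down-regulation each earned 2 points. C. elegans lifespan, tested in 4 to 6 independent trials, scored 0–2, and DNA-damaging or cytotoxic effects in cultured human cells cost one point.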

WI-38 cells [3] = assay: Propidium iodide (PI) cell-death imaging upon H2O2 stress; type: cell-based, human; details: for Assay 7: H2O2-resistant, at 10 uM, validated by propidium iodide (PI) cell-death imaging: w/H2O2, 3 hrs/4 hrs/5 hrs, YES/NO; for cytotoxicity at 10 µM: Homo sapiens, WI-38
[4] = test system: human dermal fibroblast (HDF) primary cells; assay: H2O2-resistance in primary human dermal fibroblasts; type: cell-based; details: for fold induction at 10 µM: Homo sapiens; for Assay 6: H2O2-resistant, at 10 uM, human dermal fibroblast (HDF) primary cells: YES/NO
[5] = WI-38 cells, 10 μM, 24 hrs, n=4, qPCR normalized by B2M, read-out: DDB1 Normalized fold change
[6] = WI-38 cells, 10 μM, 24 hrs, n=4, qPCR normalized by B2M, read-out: GADD45A Normalized fold change
[7] = WI-38 cells, 10 μM, 24 hrs, n=4, qPCR normalized by B2M, read-out: SESN1 Normalized fold change
[8] = qPCR, WI-38 cells, 10 μM, n=4, 24 hrs, normalized by B2M, read-out: CAT Normalized fold change
[9] = qPCR, WI-38 cells, 10 μM, n=4, 24 hrs, normalized by B2M, read-out: SOD2 Normalized fold change
[10] = qPCR, WI-38 cells, 10 μM, n=4, 24 hrs, normalized by B2M, read-out: TXNIP Normalized fold change
[11] = WI-38 cells, 10 μM, (*) = compromised ability to protect cells from H2O2, could be due to stability issue
[12] = asterisks indicate the loss of the ability to protect cells from H2O2 over time
[13] = read-out: Est. ED50, dose response 0.6-20 μM, H2O2-resistance
[14] = H2O2 3 hrs, 10 uM, n = 6, negative control 5.44% ± 0.79%, read-out: Percentage of propidium iodide-positive dead cells (under H2O2 stress treatment), 3 hrs
[15] = pre-treatment at 10 uM, 3.5 hours of H2O2, DMSO control 27.4% ± 6.5%, */**/*** = reduced by one/two/three standard deviations, read-out: Percentage of propidium iodide-positive dead cells (under H2O2 stress treatment), at 10 uM
[16] = Experiment 1, HDF cells, read-out: Experiment 1, HDF cells (under H2O2 stress treatment), at 10 uM (fold change)
[17] = Experiment 2, HDF cells, read-out: Experiment 2, HDF cells (under H2O2 stress treatment), at 10 uM (fold change)

Compound: CCCN1C/C(=C\c2ccc(F)cc2)C(=O)/C(=C/c2ccc(F)cc2)C1 [O15]
- Induction of at least two of five FOXO3-regulated genes (SOD2, GADD45A, CAT, DDB1, TXNIP) (FOXO3; 10 μM, 24 hrs, WI-38): significant induction; also recorded: significant, induction
- E = Potential FOXO3 Activation (FOXO3; 2-point score): 0
- fold induction at 10 µM (FOXO3; 24 h, Assay 10(m), at 10 uM, qPCR, read-out: Induction of FOXO3-regulated genes: CAT normalized fold-change): 1.28
- fold induction at 10 µM (FOXO3; 24 h, Assay 10(m), at 10 uM, qPCR, read-out: Induction of FOXO3-regulated genes: GADD45A normalized fold-change): 2.72
- fold induction at 10 µM (FOXO3; 24 h, Assay 10(m), at 10 uM, qPCR, read-out: Induction of FOXO3-regulated genes: SESN1 normalized fold-change): 0.8
- fold induction at 10 µM (FOXO3; 24 h, Assay 10(m), at 10 uM, qPCR, read-out: Induction of FOXO3-regulated genes: TXNIP normalized fold-change): 0.22
- fold induction at 10 µM (FOXO3; 10 μM, 24 hrs, WI-38 cells, qPCR, normalized to B2M, n = 4, read-out: CAT expression, normalized fold change (FOXO3-regulated gene)): 1.28
- fold induction at 10 µM (FOXO3; 10 μM, 24 hrs, WI-38 cells, qPCR, normalized to B2M, n = 4, read-out: GADD45A expression, normalized fold change (FOXO3-regulated gene)): 2.72
- fold induction at 10 µM (FOXO3; 10 μM, 24 hrs, WI-38 cells, qPCR, normalized to B2M, n = 4, read-out: SESN1 expression, normalized fold change (FOXO3-regulated gene)): 0.8
- fold induction at 10 µM (FOXO3; 10 μM, 24 hrs, WI-38 cells, qPCR, normalized to B2M, n = 4, read-out: TXNIP expression, normalized fold change (FOXO3-regulated gene)): 0.22
- fold induction at 10 µM (FOXO3; [5]): 1.17
- fold induction at 10 µM (FOXO3; [6]): 2.71
- fold induction at 10 µM (FOXO3; [7]): 0.679
- fold induction at 10 µM (FOXO3; fold change, qPCR, WI-38 cells, 10 μM, 24 hrs, read-out: Summary of effects on FOXO3-regulated genes: CAT): 1.28
- fold induction at 10 µM (FOXO3; fold change, qPCR, WI-38 cells, 10 μM, 24 hrs, read-out: Summary of effects on FOXO3-regulated genes: GADD45A): 2.72
- fold induction at 10 µM (FOXO3; fold change, qPCR, WI-38 cells, 10 μM, 24 hrs, read-out: Summary of effects on FOXO3-regulated genes: SESN1): 0.8
- fold induction at 10 µM (FOXO3; fold change, qPCR, WI-38 cells, 10 μM, 24 hrs, read-out: Summary of effects on FOXO3-regulated genes: TXNIP): 0.22
- fold induction at 10 µM (FOXO3; [8]): 1.28
- fold induction at 10 µM (FOXO3; [9]): 1.05
- fold induction at 10 µM (FOXO3; [10]): 0.219
- K = Sestrin induction (FOXO3): 0
- E = Potential FOXO3 Activation (FOXO3; summary score): 0
- H2O2-resistant (WI-38 cells [1]; [11]): YES (*)
- No H2O2 stress treatment, at 10 uM (fold change) (WI-38 cells [1]; WI-38 cells): 0.98 fold change
- Assay 1: H2O2-resistant (WI-38 cells [1]): YES
- H2O2-resistant (WI-38 cells [1]; [12]): YES (*)
- EC50 (WI-38 cells [1]; [13]): 20 µM
- H2O2-resistance assay, 1st experiment (C. elegans): YES;
- H2O2-resistance assay, 2nd experiment (C. elegans): YES.
- L = H2O2-resistance in worms (C. elegans): 1
- N = H2O2-resistance in woms (C. elegans): 1
- Protection of C. elegans from hydrogen peroxide (C. elegans): protected worms from hydrogen peroxide; also recorded: protected C. elegans from hydrogen peroxide; also recorded: could protect C. elegans from hydrogen peroxide
- D = Triple resistant [2]: 0
- S = Sum of Negative scores [2]: 0
- C = H2O2- & Cd-resistant [2]: 0
- Assay 7: H2O2-resistant, at 10 uM, validated by propidium iodide (PI) cell-death imaging (WI-38 cells [3]; 10 uM): YES
- cytotoxicity at 10 µM (WI-38 cells [3]; [14]): 4.04%
- cytotoxicity at 10 µM (WI-38 cells [3]; H2O2 4 hrs, 10 uM, n = 6, negative control 16.81% ± 1.42%, read-out: Percentage of propidium iodide-positive dead cells (under H2O2 stress treatment), 4 hrs): 4.4%
- cytotoxicity at 10 µM (WI-38 cells [3]; H2O2 5 hrs, 10 uM, n = 6, negative control 22.50% ± 1.53%, read-out: Percentage of propidium iodide-positive dead cells (under H2O2 stress treatment), 5 hrs): 6.06%
- cytotoxicity at 10 µM (WI-38 cells [3]; [15]): 6.8%
- fold induction at 10 µM [4, 16]: 0.57
- fold induction at 10 µM [4, 17]: 1.77
- Assay 6: H2O2-resistant, at 10 uM, human dermal fibroblast (HDF) primary cells [4]: YES

Compound: O=C1NCCCc2cc(Cl)sc21 [O1]
- E = Potential FOXO3 Activation (FOXO3; 2-point score): 0
- fold induction at 10 µM (FOXO3; [5]): 1.2
- fold induction at 10 µM (FOXO3; [6]): 0.853
- fold induction at 10 µM (FOXO3; [7]): 1.18
- fold induction at 10 µM (FOXO3; [8]): 1.25
- fold induction at 10 µM (FOXO3; [9]): 1.11
- fold induction at 10 µM (FOXO3; [10]): 1.11
- K = Sestrin induction (FOXO3): 0
- E = Potential FOXO3 Activation (FOXO3; summary score): 0
- H2O2-resistant (WI-38 cells [1]; [11]): YES
- No H2O2 stress treatment, at 10 uM (fold change) (WI-38 cells [1]; WI-38 cells): 0.92 fold change
- Assay 1: H2O2-resistant (WI-38 cells [1]): YES
- H2O2-resistant (WI-38 cells [1]; [12]): YES
- EC50 (WI-38 cells [1]; derived from dose response curves, 0.6-20 uM, H2O2-resistance of WI-38 cells): 13.2 µM
- EC50 (WI-38 cells [1]; [13]): 13.2 µM
- L = H2O2-resistance in worms (C. elegans): 0
- N = H2O2-resistance in woms (C. elegans): 0
- D = Triple resistant [2]: 0
- S = Sum of Negative scores [2]: 0
- C = H2O2- & Cd-resistant [2]: 1
- Assay 7: H2O2-resistant, at 10 uM, validated by propidium iodide (PI) cell-death imaging (WI-38 cells [3]; 10 uM): YES
- cytotoxicity at 10 µM (WI-38 cells [3]; [14]): 5.8%
- cytotoxicity at 10 µM (WI-38 cells [3]; [15]): 20.4%
- fold induction at 10 µM [4, 16]: 2.95
- fold induction at 10 µM [4, 17]: 17.8
- Assay 6: H2O2-resistant, at 10 uM, human dermal fibroblast (HDF) primary cells [4]: YES
